From patent publication US8592420B2, “Method of treating an anxiety disorder” (Kyowa Hakko Kirin Co., Ltd., priority 2003, dated 2013)

Legend:
Type in all cases: in vivo
[1] = tested on: Mice; assay: Hole-Board Test in the mouse (Test Example 1)
Method: The method followed that described in Arch. Int. Pharmacodyn. Ther., 147, 372-387 (1964) with a slight modification.
Mice were individually placed on a square board (35×35 cm) raised 60 cm above the floor, containing 16 equally spaced holes (25 mm diameter). The number of head-dips occurring during a 5 minute test was counted.
(§1) The test compound or vehicle was administered orally 60 minutes before the test.
Data were analyzed by comparing the result of a tested group with that of a vehicle control group using an unpaired Student's t-test.

[2] = tested on: Mice; assay: Marble Burying Test in the mouse (Test Example 2)
Method: (§2) The method followed that described in Eur. J. Pharmacol., 126, 223-229 (1986) with a slight modification.
(§3) Mice exposed to a novel object (marbles) tend to bury them in the sawdust floor covering.
(§4) Mice were individually placed in transparent plastic cages with 25 colored marbles (diameter 1.5 cm) on 5 cm of the sawdust floor. The cage was covered with a similar cage upturned.
(§5) The number of marbles covered by sawdust (50% or more) was counted at the end of a 30 minute test.
as §1
Data were analyzed by comparing the result of treated groups with that of a vehicle control group using an unpaired Student's t-test.

[3] = tested on: rat; assay: Learned Helplessness in the rat (Test Example 3); settings: FIG. 1, single treatment p.o. 60 min before test
Method: The method followed that described in J. Exp. Psychol., 74, 1-9 (1967) with a slight modification.
Preconditioning with inescapable electric foot shock was given individually to each rat in the shuttle box on day 1. A constant current (1.3 mA) shock generator delivered scrambled, inescapable shocks to the grid floor during 50 minute preconditioning period. Control rats were also individually placed in the identical chamber for 50 minutes, but shock was not given. Conditioned avoidance training session (FR1: buzzer 10 seconds, 0.6 mA foot shock; 5 seconds, interval time; 10 seconds/trial, 15 escape trials) and test session (FR2: 0.6 mA foot shock; 10 seconds, interval time; 0.5 seconds, 0.6 mA foot shock; 10 seconds, interval time; 15 seconds/trial, 15 trials) were performed on day 2 consecutively. FR1 session consisted of 15 trials during which a single shuttle response terminated shock and rats learned how to escape shocks. Subsequent FR2 session consisted of 15 trials during which each rat had to cross from one side of the shuttle box to the other and then crossed back to terminate shock. […]
The ratio of escape response was calculated from the following formula. […]
The ratio of intertrial response is calculated from the following formula. […]
Data were analyzed by comparing the result of a tested group with that of a vehicle control group using a Steel test.

[4] = tested on: rat; assay: Elevated Plus-Maze Test in the rat (Test Example 4)
Method: (§6) The method followed that described in Naunyn. Schmied. Arch. Pharmacol., 327, 1-5 (1984) with a slight modification.
(§7) The maze consisted of 4 arms of equal length and width (50×10 cm) arranged in the form of a plus sign (+). Two opposite arms were enclosed by 40 cm high walls (closed arms). The 2 other arms had no walls (open arms). The maze was raised 50 cm above the floor. A rat was placed in the center of the plus-maze and left to explore for 5 minutes. The number of entries into the open and closed arms and the time spent in the open arms was recorded.
The test compound or vehicle was administered orally 60 minutes before the test, respectively.
(§8) Data were analyzed by comparing the result of a treated group with that of a vehicle control group using an unpaired Student's t-test.

[5] = tested on: male rats; assay: Social Interaction Test in the rat (Test Example 5)
Method: The method followed that described in Br. J. Pharmacol., 62, 19-24 (1978) with a slight modification.
A pair of male rats were placed in opposite corners of an open-topped arena (50×50×50 cm) and allowed to interact with each other. The time spent in active social interaction (i.e. sniffing, following, grooming, mounting, crawling under or over the partner) was recorded for a 10 minute session.
The test compound or vehicle was administered orally 60 minutes before the test, with each rat of the same pair receiving the same treatment.
Data were analyzed by comparing the result of a treated group with that of a vehicle control group using an unpaired Student's t-tests.

[6] = tested on: Mice; assay: Marble Burying Test in the mouse, adjunctive treatment with buspirone or fluoxetine (Test Example 7); settings: for NUMBER OF MARBLES COVERED BY SAWDUST % change from control / NUMBER OF MARBLES COVERED BY SAWDUST mean ± s.e.m.: Table 5; for NUMBER OF MARBLES COVERED BY SAWDUST mean ± s.e.m.: 60 min before test, vehicle 17.1 ± 1.6; for effect of single administration on number of marbles covered by sawdust: single administration: Compound A 1 mg/kg, buspirone 15 mg/kg, fluoxetine 20 mg/kg, po
Method: as §2, §3, §4, §5
The test compound or vehicle was administered orally 60 minutes before the test either alone or in combination with buspirone or fluoxetine.
as §8

[7] = tested on: rat; assay: Elevated Plus-Maze Test in the rat, adjunctive treatment with alprazolam (Test Example 8); settings: for OPEN ARMS NUMBER OF ENTRIES % change from control / OPEN ARMS TIME SPENT % change from control / OPEN ARMS NUMBER OF ENTRIES mean ± s.e.m. / OPEN ARMS TIME SPENT (sec) mean ± s.e.m.: Table 6; for OPEN ARMS NUMBER OF ENTRIES % change from control / OPEN ARMS TIME SPENT % change from control: single compound 1 mg/kg po; for OPEN ARMS NUMBER OF ENTRIES mean ± s.e.m. / OPEN ARMS TIME SPENT (sec) mean ± s.e.m.: single compound 1 mg/kg po 60 min before test; for OPEN ARMS NUMBER OF ENTRIES mean ± s.e.m.: vehicle 2.3 ± 0.6; for OPEN ARMS TIME SPENT (sec) mean ± s.e.m.: vehicle 37.4 ± 9.5; for effect alone on open arm entries and time spent in open arms: alone at 1 mg/kg po
Method: as §6, §7
The test compound or vehicle was administered orally 60 minutes before the test either alone or in combination with alprazolam.
as §8

[8] = tested on: Male Wistar rats; assay: Vogel Conflict Test in the rat (Test Example 10); settings: Table 7; 1 mg/kg po 60 min before test; 5 minutes punished session; vehicle 4.8 ± 1.3 (for C), 5.7 ± 0.8 (for D)
Method: The method followed that described in Psychopharmacol., 21, 1-7 (1971) with a slight modification. Male Wistar rats (160-200 g) were deprived of water for 48 hours prior to test session consisting of a 5 minutes period. Each rat was then placed in a test box (25×30×25 cm). The rat was allowed to explore the drinking spout to drink water. When the rat drinks a drip of water, the electric shock (0.16 mA, duration of 0.2 seconds) was delivered from the floor grid. […] The test compound or a vehicle was administered orally 60 minutes before the test, respectively. Data were analyzed by comparing the result of a tested group with that of a vehicle control group using an unpaired Student's t-test.

## CCn1c(=O)c2c(nc(/C=C/c3ccc(OC)c(OC)c3)n2C)n(CC)c1=O [Compound A, (E)-8-(3,4-dimethoxystyryl)-1,3-diethyl-7-methylxanthine]
[1]; Table 1-A, 3 mg/kg p.o. 60 min before test, 5 minute test, vehicle 28.6 ± 2.4
  NUMBER OF HEAD-DIPS mean ± s.e.m.: 46.7 ± 3.2
[1]; Table 1-A, 3 mg/kg p.o. 60 min before test, vehicle 12.7 ± 0.8
  NUMBER OF ENTRIES INTO THE 4 QUADRANTS mean ± s.e.m.: 24.4 ± 1.7
[2]; Table 2-A, 3 mg/kg p.o. 60 min before test
  NUMBER OF MARBLES COVERED BY SAWDUST % change from control: −50%
[2]; Table 2-A, 3 mg/kg p.o. 60 min before test, 30 minute test, 25 marbles, vehicle 20.9 ± 1.4
  NUMBER OF MARBLES COVERED BY SAWDUST mean ± s.e.m.: 10.5 ± 2.9
[3]; 1.25 mg/kg and more
  escape failure (ratio of escape response, FR2 trial): dose-dependently reversed the escape failure
[3]
  intertrial crossings (ratio of intertrial response, FR2 trial): did not increase intertrial crossings
[4]; Table 3-A, 3 mg/kg po 60 min before test, 5 minutes, vehicle 1.9 ± 0.3
  OPEN ARMS NUMBER OF ENTRIES mean ± s.e.m.: 5.4 ± 0.7
[4]; Table 3-A, 3 mg/kg po 60 min before test, vehicle 38.9 ± 7.7
  OPEN ARMS TIME SPENT (sec) mean ± s.e.m.: 143 ± 20.9 s
[5]; Table 4-A, 3 mg/kg po 60 min before test, 10 minute session, vehicle 97.5 ± 8.7
  TIME SPENT IN ACTIVE SOCIAL INTERACTION (sec) mean ± s.e.m.: 153 ± 11.2 s
[6]; Compound A 1 mg/kg po alone
  NUMBER OF MARBLES COVERED BY SAWDUST % change from control: −18%
  NUMBER OF MARBLES COVERED BY SAWDUST mean ± s.e.m.: 14.1 ± 1.6
[6]
  effect of single administration on number of marbles covered by sawdust: no significant effects
[7]
  OPEN ARMS NUMBER OF ENTRIES % change from control: +65%
  OPEN ARMS TIME SPENT % change from control: +48%
  OPEN ARMS NUMBER OF ENTRIES mean ± s.e.m.: 3.8 ± 0.8
  OPEN ARMS TIME SPENT (sec) mean ± s.e.m.: 55.2 ± 12.1 s
  effect alone on open arm entries and time spent in open arms: moderate effect

## COc1cc(/C=C/c2nc3c(c(=O)n(C)c(=O)n3C)n2C)cc(OC)c1OC [Compound B, (E)-1,3,7-trimethyl-8-(3,4,5-trimethoxystyryl)xanthine]
[1]; Table 1-B, 3 mg/kg p.o. 60 min before test, vehicle 30.2 ± 3.9
  NUMBER OF HEAD-DIPS mean ± s.e.m.: 43.9 ± 4.2
[2]; Table 2-B, 3 mg/kg p.o. 60 min before test
  NUMBER OF MARBLES COVERED BY SAWDUST % change from control: −55%
[2]; Table 2-B, 3 mg/kg p.o. 60 min before test, vehicle 20.6 ± 1.1
  NUMBER OF MARBLES COVERED BY SAWDUST mean ± s.e.m.: 9.3 ± 1.9
[4]; Table 3-B, 1 mg/kg po 60 min before test, vehicle 1.8 ± 0.8
  OPEN ARMS NUMBER OF ENTRIES mean ± s.e.m.: 5.8 ± 0.8
[4]; Table 3-B, 1 mg/kg po 60 min before test, vehicle 15.6 ± 8.1
  OPEN ARMS TIME SPENT (sec) mean ± s.e.m.: 94.4 ± 15.2 s
[5]; Table 4-B, 3 mg/kg po 60 min before test, vehicle 89.0 ± 5.7
  TIME SPENT IN ACTIVE SOCIAL INTERACTION (sec) mean ± s.e.m.: 141 ± 6.8 s

## CC(C)(O)CCN1CCN(c2cc3nc(-c4ccco4)nn3c(N)n2)CC1 [Compound C, 5-amino-2-(2-furyl)-7-[4-(3-hydroxy-3-methylbutyl)piperazinyl][1,2,4]triazolo[1,5-c]pyrimidine]
[1]; Table 1-C, 10 mg/kg p.o. 60 min before test, vehicle 30.2 ± 3.9
  NUMBER OF HEAD-DIPS mean ± s.e.m.: 46.9 ± 3.4
[2]; Table 2-C, 10 mg/kg p.o. 60 min before test, p 0.08
  NUMBER OF MARBLES COVERED BY SAWDUST % change from control: −17%
[2]; Table 2-C, 10 mg/kg p.o. 60 min before test, vehicle 20.9 ± 1.1, p 0.08
  NUMBER OF MARBLES COVERED BY SAWDUST mean ± s.e.m.: 17.0 ± 1.6
[4]; Table 3-C, 30 mg/kg po 60 min before test, vehicle 2.3 ± 0.5, p 0.0503
  OPEN ARMS NUMBER OF ENTRIES mean ± s.e.m.: 4.2 ± 0.8
[4]; Table 3-C, 30 mg/kg po 60 min before test, vehicle 26.4 ± 6.6
  OPEN ARMS TIME SPENT (sec) mean ± s.e.m.: 55.2 ± 10.7 s
[5]; Table 4-C, 30 mg/kg po 60 min before test, vehicle 96.2 ± 8.2
  TIME SPENT IN ACTIVE SOCIAL INTERACTION (sec) mean ± s.e.m.: 130 ± 9.7 s
[8]
  NUMBER OF SHOCKS mean ± s.e.m: 10.5 ± 2.1

## COCCOc1ccc(N2CCN(CCn3ncc4c3nc(N)n3nc(-c5ccco5)nc43)CC2)cc1 [Compound D, 5-amino-2-(2-furyl)-7-(2-{4-[4-(2-methoxyethoxy)phenyl]piperazinyl}ethyl)pyrazolo[4,3-e]-1,2,4-triazolo[1,5-c]pyrimidine]
[8]
  NUMBER OF SHOCKS mean ± s.e.m: 10.8 ± 1.6

## Cc1nnc2n1-c1ccc(Cl)cc1C(c1ccccc1)=NC2 [alprazolam, reference compound]
[7]
  OPEN ARMS NUMBER OF ENTRIES % change from control: +91%
  OPEN ARMS TIME SPENT % change from control: +53%
  OPEN ARMS NUMBER OF ENTRIES mean ± s.e.m.: 4.4 ± 0.9
  OPEN ARMS TIME SPENT (sec) mean ± s.e.m.: 57.3 ± 12.8 s
  effect alone on open arm entries and time spent in open arms: moderate effect

## O=C1CC2(CCCC2)CC(=O)N1CCCCN1CCN(c2ncccn2)CC1 [buspirone]
[6]; buspirone 15 mg/kg po alone
  NUMBER OF MARBLES COVERED BY SAWDUST % change from control: −26%
  NUMBER OF MARBLES COVERED BY SAWDUST mean ± s.e.m.: 12.7 ± 1.8
[6]
  effect of single administration on number of marbles covered by sawdust: no significant effects

## CNCCC(Oc1ccc(C(F)(F)F)cc1)c1ccccc1 (stereo not drawn) [fluoxetine]
[6]; fluoxetine 20 mg/kg po alone
  NUMBER OF MARBLES COVERED BY SAWDUST % change from control: −20%
  NUMBER OF MARBLES COVERED BY SAWDUST mean ± s.e.m.: 13.6 ± 2.5
[6]
  effect of single administration on number of marbles covered by sawdust: no significant effects
